# What was measured:
# [1] = Plasma clearance (2 mg/kg, i.v.) was determined in Sprague-Dawley rats; format: ADME, organism-based; conditions: rat, iv, read-out: Clp
# [2] = Bioavailability (10 mg/kg, p.o.) in Sprague Dawley rats; format: ADME, organism-based; conditions: rat, in vivo, po
# [3] = Half-life (2 mg/kg, i.v.) was determined in Sprague-Dawley rats; format: ADME, organism-based; conditions: rat, in vivo, iv
# [4] = biological target: T1, Metabotropic glutamate receptor 5 (Homo sapiens, UniProt P41594); test: In vitro potency against calcium flux in Ltk cells expressing human recombinant metabotropic glutamate receptor 5 using fluorescence detection; format: cell-based
# [5] = Volume of distribution (2 mg/kg, iv.) was determined in Sprague Dawley rats; not determined; format: ADME, organism-based; conditions: rat, in vivo
# Rattus norvegicus = test: In vivo receptor occupancy was determined in rats following intravenous dosage at 10 mg/kg; format: functional
# [6] = biological target: T1, Metabotropic glutamate receptor 5; test: In vitro potency against calcium flux in Ltk cells expressing human recombinant metabotropic glutamate receptor 5 using fluorescence detection; not active at 10 uM; format: cell-based
# [7] = Volume of distribution (2 mg/kg, iv.) was determined in Sprague Dawley rats; format: ADME, organism-based; conditions: rat, in vivo
# [8] = Bioavailability (10 mg/kg, p.o.) was determined in Sprague Dawley rats; format: ADME, organism-based; conditions: rat, in vivo, po
# T1 sequence (P41594 whole entry): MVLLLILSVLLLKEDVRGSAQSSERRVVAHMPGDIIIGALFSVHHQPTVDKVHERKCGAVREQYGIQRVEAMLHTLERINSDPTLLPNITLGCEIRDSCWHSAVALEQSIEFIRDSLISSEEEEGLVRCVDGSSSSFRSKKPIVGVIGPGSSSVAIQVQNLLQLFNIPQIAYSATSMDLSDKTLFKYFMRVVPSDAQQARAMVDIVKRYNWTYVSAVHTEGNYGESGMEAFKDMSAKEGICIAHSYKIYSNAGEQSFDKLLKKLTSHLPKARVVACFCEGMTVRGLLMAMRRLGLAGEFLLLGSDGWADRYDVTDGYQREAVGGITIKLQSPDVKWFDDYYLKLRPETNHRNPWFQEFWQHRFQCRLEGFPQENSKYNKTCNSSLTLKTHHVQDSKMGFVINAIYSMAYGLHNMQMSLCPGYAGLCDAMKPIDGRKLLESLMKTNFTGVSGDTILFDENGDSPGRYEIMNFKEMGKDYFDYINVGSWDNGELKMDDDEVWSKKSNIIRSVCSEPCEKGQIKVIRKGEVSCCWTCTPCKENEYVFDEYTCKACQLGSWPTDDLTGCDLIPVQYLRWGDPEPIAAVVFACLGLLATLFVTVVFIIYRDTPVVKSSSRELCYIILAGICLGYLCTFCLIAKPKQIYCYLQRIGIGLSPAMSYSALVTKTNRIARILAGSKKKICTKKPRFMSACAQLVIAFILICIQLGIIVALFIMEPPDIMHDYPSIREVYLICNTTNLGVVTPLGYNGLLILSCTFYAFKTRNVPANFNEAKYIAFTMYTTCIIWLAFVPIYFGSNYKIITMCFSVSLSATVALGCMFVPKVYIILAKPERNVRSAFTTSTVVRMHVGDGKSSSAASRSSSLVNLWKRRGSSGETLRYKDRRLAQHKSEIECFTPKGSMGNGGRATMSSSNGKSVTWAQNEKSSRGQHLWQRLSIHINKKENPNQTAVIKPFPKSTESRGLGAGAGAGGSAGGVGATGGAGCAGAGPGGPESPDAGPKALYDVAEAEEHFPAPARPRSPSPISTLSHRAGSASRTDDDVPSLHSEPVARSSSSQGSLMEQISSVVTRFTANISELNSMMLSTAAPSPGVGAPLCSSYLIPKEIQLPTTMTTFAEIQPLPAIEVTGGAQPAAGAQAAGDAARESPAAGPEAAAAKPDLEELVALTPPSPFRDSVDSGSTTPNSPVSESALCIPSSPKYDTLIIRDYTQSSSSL
smiles,measurement,setting,value
CCOc1cc(-c2cccnc2)cnc1Nc1cccc(C)n1,clearance,[1],3 L/h/kg
same,bioavailability,[2],38%
same,half-life,[3],1 h
same,IC50,[4],0.012 µM
CCOc1cc(-c2cncnc2)cnc1Nc1cccc(C)n1,clearance,[1],4.74 L/h/kg
same,bioavailability,[2],67%
same,Vd,[5],2.3 L/kg
same,half-life,[3],0.6 h
same,IC50,[4],0.036 µM
same,Receptor occupancy,Rattus norvegicus,79%
Cc1cccc(Nc2ncccc2C)n1,IC50,[6],Not Active
CCOc1cccnc1Nc1ccccn1,clearance,[1],4.68 L/h/kg
same,bioavailability,[2],16%
same,Vd,[7],2.9 L/kg
same,half-life,[3],0.8 h
same,IC50,[4],0.138 µM
CCOc1cccnc1Nc1cccc(C(F)(F)F)n1,IC50,[4],1.9 µM
CCOc1cccnc1Nc1cccc(OC)n1,IC50,[4],0.556 µM
CCOc1cccnc1Nc1cccc(C(=O)OC)n1,IC50,[4],6.2 µM
Cc1cccc(Nc2ncccc2O)n1,IC50,[6],Not Active
COc1cccnc1Nc1cccc(C)n1,IC50,[4],0.458 µM
CCOc1ncccc1Nc1cccc(C)n1,IC50,[6],Not Active
Cc1cccc(Nc2ncccc2C#N)n1,IC50,[6],Not Active
CCOc1cc(-c2cnccc2C)cnc1Nc1cccc(C)n1,clearance,[1],6.3 L/h/kg
same,bioavailability,[2],8%
same,Vd,[5],4.7 L/kg
same,half-life,[3],0.7 h
same,IC50,[4],0.045 µM
Cc1cccc(Nc2ncccc2OCc2ccccc2)n1,IC50,[4],0.87 µM
CCCOc1cccnc1Nc1cccc(C)n1,IC50,[4],1.6 µM
Cc1cccc(Nc2ncccc2-c2ccccc2)n1,IC50,[6],Not Active
CCOc1cc(C#N)cnc1Nc1cccc(C)n1,clearance,[1],5.4 L/h/kg
same,bioavailability,[2],13%
same,Vd,[7],7 L/kg
same,half-life,[3],1.6 h
same,IC50,[4],0.046 µM
CCOc1cc(-c2ccc(C)cc2)cnc1Nc1cccc(C)n1,IC50,[4],0.513 µM
CCOc1cc(-c2cccnc2C#N)cnc1Nc1cccc(C)n1,IC50,[4],0.08 µM
CCOc1cc(C)cnc1Nc1cccc(C)n1,IC50,[4],0.119 µM
CCOc1ccc(C)nc1Nc1cccc(C)n1,IC50,[6],Not Active
CCOc1cc(-c2ccccc2C#N)cnc1Nc1cccc(C)n1,IC50,[4],0.037 µM
CSc1cccnc1Nc1cccc(C)n1,IC50,[4],0.79 µM
COC(=O)c1cccnc1Nc1cccc(C)n1,IC50,[6],Not Active
CCOc1cc(-c2ccsn2)cnc1Nc1cccc(C)n1,IC50,[4],0.243 µM
CCOc1ccccc1Nc1cccc(C)n1,IC50,[6],Not Active
CCOc1cc(Cl)cnc1Nc1cccc(C)n1,IC50,[4],0.017 µM
CCNc1cccnc1Nc1cccc(C)n1,IC50,[4],3 µM
CCCc1cccnc1Nc1cccc(C)n1,clearance,[1],19.2 L/h/kg
same,half-life,[3],1 h
same,IC50,[4],0.394 µM
CCOc1c(C)ccnc1Nc1cccc(C)n1,IC50,[4],2.7 µM
Cc1cccc(Nc2ncccc2OC(C)C)n1,IC50,[4],1 µM
CCOc1cc(-c2ccccc2)cnc1Nc1cccc(C)n1,IC50,[4],0.267 µM
CCOc1cc(Oc2cccnc2)cnc1Nc1cccc(C)n1,clearance,[1],3.12 L/h/kg
same,Vd,[5],3.7 L/kg
same,half-life,[3],1.2 h
same,IC50,[4],0.018 µM
same,Receptor occupancy,Rattus norvegicus,82%
CCOc1cc(-c2cccc(F)c2)cnc1Nc1cccc(C)n1,clearance,[1],5.58 L/h/kg
same,bioavailability,[2],19%
same,Vd,[7],3 L/kg
same,half-life,[3],0.5 h
same,IC50,[4],0.126 µM
CCOc1cc(Br)cnc1Nc1cccc(C)n1,IC50,[4],0.047 µM
Cc1cccc(Nc2ncccc2-c2cccnc2)n1,IC50,[6],Not Active
CCOc1cc(-c2ccccn2)cnc1Nc1cccc(C)n1,clearance,[1],7.44 L/h/kg
same,bioavailability,[2],0%
same,Vd,[7],6.1 L/kg
same,half-life,[3],1 h
same,IC50,[4],0.193 µM
CCOc1nccnc1Nc1cccc(C)n1,clearance,[1],6.12 L/h/kg
same,half-life,[3],1 h
same,IC50,[4],0.497 µM
CCOc1cccnc1Nc1cccc(C)n1,bioavailability,[8],11%
same,clearance,[1],0.96 L/h/kg
same,Vd,[7],1.2 L/kg
same,half-life,[3],2.1 h
same,IC50,[4],0.04 µM
COc1cccc(F)c1Nc1cccc(C)n1,IC50,[6],Not Active

# From ChEMBL document CHEMBL1141067, “Dipyridyl amines: potent metabotropic glutamate subtype 5 receptor antagonists” (Bioorg Med Chem Lett, 2005)
